System: PrP^Sc in iPK1/2 cells
Type: cell-based

dextran sulfate
concentration of apparent curing: greater than 1 × 10^−6 M | effect on PrP^Sc levels / prion infection (curing): dose-dependent decrease in PrP^Sc | IC50 (read-out: apparent IC50, reduction of PrP^Sc): ~500 nM

— publication PMC5717343 (Open Biology, 2017)
